The values below come from US10556875B2, “Bis-diazeniumdiolate compounds as anti-cancer agents” (ARIZONA BOARD OF REGENTS ON BEHALF OF ARIZONA STATE …, priority 2017, dated 2020).

Each structure is given as a SMILES string. Like-named read-outs stand apart in the source and are kept apart here. Some results are limits rather than exact numbers.

What all share (format): cell-based, human
Experiment [1] deals with breast cancer cell MDA-MB-231. The experiment is described as follows: In vitro cellular proliferation assay (MTT/MTS).
The subject of experiment [2] is leukemia cell CCRF-CEM. Nature of the experiment: In vitro cellular proliferation assay (MTT/MTS). The procedure:
(§1) In Vitro Cellular Proliferation Assay: BT474 breast cancer cells (ATCC® HTB-20, overexpression of HER2), A549 lung cancer cells, leukemia cell CCRF-CEM (ATCC# CCL-119), and leukemia Jurkat cell were cultured at 37° C. in a 5% CO2 atmosphere and grown in Gibco® RPMI 1640 medium supplemented with 10% fetal bovine serum (FBS) and 1% antibiotic-[…] mix antibiotic supplement before use.
(§2) Exponentially growing cells were harvested and plated in 96-well plates at a concentration of 1×10^4 cells/well. After incubation at 37° C. for 24 h, the cells were treated with analogues of JS-K at different concentrations for an additional 24, 48 or 72 h. Then 20 μL of MTT (5 mg/mL) or MTS was added to each well and the plates were incubated at 37° C. for 4 h. The supernatant was discarded for MTT assay, and 100 μL of DMSO was added to each well. For the MTS assay, this step is not necessary. The absorbance was recorded at 490 nm after 15 min. Inhibition of cell growth was obtained by the following formula: Inhibition of cell growth (%)=(ODnegative control−ODtreatment)×100%/(ODnegative control−ODbackground). Data are reported as the mean of three independent experiments, each run in quintuplicate.

In experiment [3] the test system is A549 lung cancer cells. Nature of the experiment: In vitro cellular proliferation assay (MTT/MTS). The procedure:
as §1, §2

Experiment [4] has as its system BT474 breast cancer cells. The experiment is described as follows: In vitro cellular proliferation assay (MTT/MTS). As to the method:
as §1, §2

Experiment [5] concerns leukemia Jurkat E6-1 cells. The experiment is described as follows: In vitro cellular proliferation assay (MTT/MTS). The procedure:
as §1, §2

Experiment [6] concerns BT474, MDA-MB-231, A549, CCRF-CEM and Jurkat cancer cells. The experiment is described as follows: In vitro cellular proliferation assay, comparison across the tested cancer cell panel. As to the method:
as §1, §2

The mark [7] stands for this setting: Homo sapiens, MDA-MB-231, read-out: Half maximal inhibitory concentration (IC50).
Where [8] appears, read: Homo sapiens, CCRF-CEM, read-out: Half maximal inhibitory concentration (IC50).
[9] abbreviates: Homo sapiens, A549, read-out: Half maximal inhibitory concentration (IC50).
Setting [10] is: Homo sapiens, BT-474, read-out: Half maximal inhibitory concentration (IC50).
Where [11] appears, read: Homo sapiens, Jurkat E6.1, read-out: Half maximal inhibitory concentration (IC50).

Regarding `O=[N+]([O-])c1ccc(O/N=[N+](\[O-])N2CCN(CCN3CCN(/[N+]([O-])=N/Oc4ccc([N+](=O)[O-])cc4[N+](=O)[O-])CC3)CC2)c([N+](=O)[O-])c1` [Compound 1, (1Z,1′Z)-1,1′-(ethane-1,2-diylbis(piperazine-4,1-diyl))bis(2-(2,4-dinitrophenoxy)diazene 1-oxide)], the IC50 in experiment [1] (setting [7]) is 17.6 ± 0.08 µM; in experiment [2] (setting [8]) it was 2640 ± 370 nM; in experiment [3] (setting [9]) it was 17.1 ± 1.02 µM; in experiment [4] (setting [10]) it was 10.7 ± 0.97 µM; in experiment [5] (setting [11]), 3.71 ± 0.04 µM.

Take `O=[N+]([O-])c1ccc(O/N=[N+](\[O-])N2CCN(CCCN3CCN(/[N+]([O-])=N/Oc4ccc([N+](=O)[O-])cc4[N+](=O)[O-])CC3)CC2)c([N+](=O)[O-])c1` [Compound 2, (1Z,1′Z)-1,1′-(propane-1,3-diylbis(piperazine-4,1-diyl))bis(2-(2,4-dinitrophenoxy)diazene 1-oxide)]: the IC50 in experiment [1] (setting [7]) was > 20 µM; in experiment [2] (setting [8]) it was 3730 ± 150 nM; in experiment [3] (setting [9]), 18.8 ± 0.21 µM; in experiment [4] (setting [10]), 10.8 ± 0.08 µM; in experiment [5] (setting [11]), 4.06 ± 0.18 µM.

For `O=[N+]([O-])c1ccc(O/N=[N+](\[O-])N2CCC(CN3CCN(/N=[N+](\[O-])Oc4ccc([N+](=O)[O-])cc4[N+](=O)[O-])CC3)CC2)c([N+](=O)[O-])c1` [Compound 3, (E)-1-(2,4-dinitrophenoxy)-2-(4-((1-((Z)-2-(2,4-dinitrophenoxy)-1-oxidodiazen-1-yl)piperidin-4-yl)methyl)piperazin-1-yl)diazene 1-oxide], the “specific activity to human leukemia cells” value in experiment [6] (among the compounds of the series) is “highest specific activity”. In experiment [6] (compared with JS-K), the “selectivity to leukemia cells versus breast cancer and lung cancer cells” value is “higher selectivity than JS-K”. Also, in experiment [6] (other four cancer cells (other than CEM), relative to JS-K), the “IC50 fold higher (less cell killing potency) than for JS-K” value is given as 1.9-5.4 fold. In addition, the IC50 in experiment [1] (setting [7]) turned out to be 17.9 ± 1.01 µM; in experiment [2] (setting [8]), 460 ± 20 nM; in experiment [2] (Homo sapiens, CCRF-CEM, read-out: IC50 against leukemia CEM cells), 460 nM; in experiment [3] (setting [9]) it was 11.3 ± 1.61 µM; in experiment [4] (setting [10]), 7.06 ± 1.03 µM; in experiment [5] (setting [11]) it was 1.94 ± 0.08 µM.

In the case of `O=[N+]([O-])c1ccc(O/N=[N+](\[O-])N2CCN(CC3CCC(CN4CCN(/[N+]([O-])=N/Oc5ccc([N+](=O)[O-])cc5[N+](=O)[O-])CC4)CC3)CC2)c([N+](=O)[O-])c1` (stereo not drawn) [Compound 4, (1Z,1′Z)-1,1′-((cyclohexane-1,4-diylbis(methylene))bis(piperazine-4,1-diyl))bis(2-(2,4-dinitrophenoxy)diazene 1-oxide)], the IC50 is 16.4 ± 0.53 µM in experiment [1] (setting [7]); 2540 ± 140 nM in experiment [2] (setting [8]); 18.5 ± 0.15 µM in experiment [3] (setting [9]); 6.01 ± 0.21 µM in experiment [4] (setting [10]); 3.01 ± 0.22 µM in experiment [5] (setting [11]).

Turning to `CCOC(=O)N1CCN(/[N+]([O-])=N/Oc2ccc([N+](=O)[O-])cc2[N+](=O)[O-])CC1` [JS-K, O^2-(2,4-dinitrophenyl) 1-[(4-ethoxycarbonyl)piperazin-1-yl]diazen-1-ium-1,2-diolate, reference compound], the “inhibitory effect on cellular proliferation” value in experiment [6] (all tested cancer cells: BT474, MDA-MB-231, A549, CCRF-CEM, Jurkat) is “high inhibitory effect”. The IC50 in experiment [1] (MDA-MB-231 cells, read-out: Half maximal inhibitory concentration (IC50)) worked out at 7.93 ± 0.47 µM; in experiment [2] (leukemia CEM cells, read-out: IC50 against leukemia CEM cells) it was 290 nM; in experiment [3] (A549 cells, read-out: Half maximal inhibitory concentration (IC50)) it was 2.11 ± 0.15 µM; in experiment [4] (BT474 cells, read-out: Half maximal inhibitory concentration (IC50)) it was 3.66 ± 0.41 µM; in experiment [5] (Jurkat E6-1 cells, read-out: Half maximal inhibitory concentration (IC50)), 0.52 ± 0.02 µM.
